Experimental data published in patent US5721208A, “Glycopeptides a process for their preparation and their use” (Hoechst Aktiengesellschaft, priority 1991, dated 1998).

Tests used:
Bact. vulgatus 1446 = test: Minimum bacteriostatic inhibitory concentration, Agar dilution method; type: cell-based
Escherichia coli DC 2 = test: as above; type: cell-based
Propioni acnes 6916 = test: as above; type: cell-based
Staph. aureus 503 = test: as above; type: cell-based
Strept. faecium D = test: as above; type: cell-based
[1] = system: Clostridium perfringens 194; conditions: Agar dilution method
[2] = system: Peptostrept. anaerob. 932; test: Minimum bacteriostatic inhibitory concentration, Agar dilution method; type: cell-based
Bact. fragilis 960 = test: as above; type: cell-based
Strept. pyogenes 77 A = test: as above; type: cell-based
Bact. fragilis 312 = test: as above; type: cell-based
Strept. pyogenes 308 A = test: as above; type: cell-based
Staph. aureus 285 = test: as above; type: cell-based
Bact. fragilis 1313 = test: as above; type: cell-based
[3] = system: Clostridium tetani ATCC 1940650; conditions: Agar dilution method
Staph. aureus SG 511 = test: Minimum bacteriostatic inhibitory concentration, Agar dilution method; type: cell-based
Propioni acnes 6922 = test: as above; type: cell-based

## CC(C)C[C@H](C(=O)N[C@H]1C(=O)NC(CC(N)=O)C(=O)N[C@H]2C(=O)N[C@H]3C(=O)N[C@H](C(=O)N[C@@H](C(=O)O)c4cc(O)cc(O)c4-c4cc3ccc4O)[C@H](O[C@H]3C[C@](C)(N)C(=O)[C@H](C)O3)c3ccc(c(Cl)c3)Oc3cc2cc(c3O[C@@H]2O[C@H](CO)[C@@H](O)[C@H](O)[C@H]2O)Oc2ccc(cc2Cl)[C@H]1O)N(C)C (stereo partly shown) [Methylbalhimycin, methylbalhimycin]
Bact. vulgatus 1446
  Minimum bacteriostatic inhibitory concentration: > 100 micrograms per milliliter
Escherichia coli DC 2
  Minimum bacteriostatic inhibitory concentration: 25 micrograms per milliliter
Propioni acnes 6916
  Minimum bacteriostatic inhibitory concentration: 0.4 micrograms per milliliter
Staph. aureus 503
  Minimum bacteriostatic inhibitory concentration: 0.4 micrograms per milliliter
Strept. faecium D
  Minimum bacteriostatic inhibitory concentration: 0.8 micrograms per milliliter
[1]
  Minimum bacteriostatic inhibitory concentration: 1.5 micrograms per milliliter
[2]
  Minimum bacteriostatic inhibitory concentration: 0.8 micrograms per milliliter
Bact. fragilis 960
  Minimum bacteriostatic inhibitory concentration: 100 micrograms per milliliter
Strept. pyogenes 77 A
  Minimum bacteriostatic inhibitory concentration: 0.4 micrograms per milliliter
Bact. fragilis 312
  Minimum bacteriostatic inhibitory concentration: 100 micrograms per milliliter
Strept. pyogenes 308 A
  Minimum bacteriostatic inhibitory concentration: 0.4 micrograms per milliliter
Staph. aureus 285
  Minimum bacteriostatic inhibitory concentration: 0.4 micrograms per milliliter
Bact. fragilis 1313
  Minimum bacteriostatic inhibitory concentration: 50 micrograms per milliliter
[3]
  Minimum bacteriostatic inhibitory concentration: 3.1 micrograms per milliliter
Staph. aureus SG 511
  Minimum bacteriostatic inhibitory concentration: 0.4 micrograms per milliliter
Propioni acnes 6922
  Minimum bacteriostatic inhibitory concentration: 0.4 micrograms per milliliter
